For data set [1], the system named is COX-2 protein expression in THP-1 cells. Kind of data set: LPS-induced COX-2 protein expression in THP-1 cells (Western blot). The class given is cell-based, human. The settings on record: for COX-2 Relative expression (mean ± SEM): LPS 24 hours, LPS positive control 1.26 ± 0.11, n=6. The method, then: THP-1 cells were seeded in 12-well tissue-culture treated plates at a density of 500,000 cells/well in growth media overnight. […] Cells were washed with cold PBS and lysed in RIPA buffer containing protease inhibitors (Sigma P2714) for 15 minutes on ice. Debris was pelleted by centrifugation at 14,000×g for 15 min and lysate supernatants were frozen at −80° C. for later analysis by western blot.
Western blots for semi-quantitative COX-2 (Abcam ab188183) protein expression were conducted on THP-1 monocyte cells lysed with RIPA buffer containing protease inhibitors. A total of 10 μg protein was loaded onto precast 10% acrylamide gels (BioRad, NZ) then separated by electrophoresis at 120 V at room temperature. […] The membranes were then incubated with the primary antibody that correspond to the protein of interest for 1 h. […] Western blot images were captured with an Amersham™ Imager 600 (GE Healthcare, Chicago, Ill., USA) and densitometry measurement of protein bands was analysed with the accompanying image analysis software.
For analysis of Western blots, densitometry measurements from the proteins of interest were normalised to the densitometry of p-actin for each sample. […] The significance level was set at p≤0.05.
(In general: In western blotting, separated proteins are transferred to a membrane and probed.)

Data set [2] has as its target T1, recombinant MMP-9 enzyme (Homo sapiens, UniProt P14780).
T1 construct: purchased Abcam ab139449
Put plainly: MMP-9 inhibitor screening assay (fluorometric). The settings on record: 40 μg/ml; no significant difference to NNGH control. It is filed as biochemical. The protocol:
The MMP-9 inhibitor screening assay (fluorometric) kits were purchased from Abcam (Melbourne, Australia). The fluorometric kit contains the recombinant MMP-9 enzyme, MMP inhibitor NNGH (N-isobutyl-N-[4-methoxyphenylsulfonyl]glycyl hydroxamic acid), MMP fluorogenic substrate solubilised in DMSO, the fluorometric assay buffer and 96-well clear microplate.
Inhibitory activity on MMP-9 was assessed using the commercial MMP-9 inhibitor screening assay kit. MMP-9 activity was expressed as a change in fluorescence intensity measured using SpectraMax iD3 multi-mode microplate reader (Molecular Devices, San Jose, USA).
The assay employs a FRET-tagged (fluorescence resonance energy transfer) substrate, which can be hydrolysed by MMP-9 at a specific site (Abcam, 2018). The cleavage of the FRET substrate releases the quenched fluorescent Mca (7-methoxycoumarin-4-yl)-acetyl group (Abcam, 2018). The kit employs a quenched fluorogenic substrate Mca-Pro-Leu-Gly-Leu-Dpa-Ala-Arg-NH2, where the Mca fluorescence is quenched by Dpa until cleavage by MMPs. The amount of fluorescent product yielded by MMP-9 can be detected fluorometrically and it is proportional to the enzyme activity. Fluorescence were measured at ex320 nm-em395 nm to minimise fluorescence interference from 3,6,7-trimethyllumazine at ex330 nm-em470 nm. […]

Data set [3] concerns differentiated THP-1 cells. Put plainly: WST-1 cell viability, differentiated THP-1 cells. The class given is cell-based. The settings on record: for cell death: human. The method, then: To measure cytotoxicity of 3,6,7-trimethyllumazine at different doses, 2-(4-Iodophenyl)-3-(4-nitrophenyl)-5-(2,4-disulfophenyl)-2H-tetrazolium, monosodium salt (WST-1) (Roche, 11644807001, Lot #45255800) was used. WST-1 is a cell proliferation reagent for measurement of cellular proliferation, viability, and cytotoxicity using a colorimetric assay (Gosert (2011); Peskin (2000)).
After incubation, a portion of the culture media was taken and stored for MMP-9 secretion testing using ELISA. The remaining media in the plates was then removed and 100 μl of WST-1 in RPMI-1640 media (1:10 dilution) was added to each cell well and incubated at 37° C. for a further 4 hours. The plates were then read using a plate reader at wavelength of 450 nm. Cytotoxicity was calculated as follows:
[WST-1 score for each sample/WST-1 score for the control]×100
A WST-1 score below 80% will be considered cytotoxic.
Background: Tetrazolium dyes change colour on reduction, which living cells bring about.

Molecules are shown by their SMILES.

These results are taken from patent US20230226065A1, “ANTI-INFLAMMATORY COMPOSITIONS, METHODS AND USES THEREOF” (COMVITA LIMITED, priority 2020, published 2023).

T1 sequence (P14780 94-707): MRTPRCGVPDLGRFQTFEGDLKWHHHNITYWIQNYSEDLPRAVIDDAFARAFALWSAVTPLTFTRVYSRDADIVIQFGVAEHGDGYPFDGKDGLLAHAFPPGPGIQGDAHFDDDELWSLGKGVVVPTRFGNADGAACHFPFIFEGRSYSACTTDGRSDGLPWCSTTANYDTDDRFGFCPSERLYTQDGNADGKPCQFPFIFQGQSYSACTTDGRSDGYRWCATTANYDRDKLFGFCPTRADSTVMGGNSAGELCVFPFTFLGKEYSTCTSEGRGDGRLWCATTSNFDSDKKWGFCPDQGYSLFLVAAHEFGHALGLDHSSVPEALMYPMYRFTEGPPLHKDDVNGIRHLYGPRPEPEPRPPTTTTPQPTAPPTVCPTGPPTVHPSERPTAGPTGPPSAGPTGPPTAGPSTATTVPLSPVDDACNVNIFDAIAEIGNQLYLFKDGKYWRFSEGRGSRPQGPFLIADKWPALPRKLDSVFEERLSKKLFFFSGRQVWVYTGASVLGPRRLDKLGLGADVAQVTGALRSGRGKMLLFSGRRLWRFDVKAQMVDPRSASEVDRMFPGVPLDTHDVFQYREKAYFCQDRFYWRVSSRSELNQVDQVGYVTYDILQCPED

Turning to `Cc1nc2[nH]c(=O)n(C)c(=O)c2nc1C` [3,6,7-trimethyllumazine], the “COX-2 Relative expression (mean ± SEM)” value in data set [1] (12.5 μg/mL) is 0.98 ± 0.05; in data set [1] (25 μg/mL), 0.99 ± 0.07; in data set [1] (50 μg/mL), 0.90 ± 0.09; in data set [1] (100 μg/mL), 0.96 ± 0.13. The “reduction in COX-2 protein compared to the LPS treatment” value in data set [1] (50 ug/mL) was “significant reduction”. For the same molecule, the “reduction of COX-2 protein expression compared to LPS-stimulated cells” value in data set [1] (all doses tested, 12.5-100 μg/mL) is on record as 16-23%. Moreover, in data set [2], the “inhibition of MMP-9 activity” value was “almost completely inhibited”. Besides, the “WST-1 score (cell viability)” value in data set [3] (40 μg/mL, below 80% considered cytotoxic) amounted to 79.8%. In addition, the cell death in data set [3] (30 μg/mL) was found to be 13%; in data set [3] (40 μg/mL), 20%.
